Test results as given in patent US8367695B2, “Condensed tetrahydroquinoline derivative and use thereof for medical purposes” (Mitsubishi Tanabe Pharma Corporation, priority 2007, dated 2013).
Where two headings read alike, the source gives them in different places.

Target: T1, human recombinant glucocorticoids receptor (GR) (Homo sapiens, UniProt P04150)
T1 sequence (P04150 1-777): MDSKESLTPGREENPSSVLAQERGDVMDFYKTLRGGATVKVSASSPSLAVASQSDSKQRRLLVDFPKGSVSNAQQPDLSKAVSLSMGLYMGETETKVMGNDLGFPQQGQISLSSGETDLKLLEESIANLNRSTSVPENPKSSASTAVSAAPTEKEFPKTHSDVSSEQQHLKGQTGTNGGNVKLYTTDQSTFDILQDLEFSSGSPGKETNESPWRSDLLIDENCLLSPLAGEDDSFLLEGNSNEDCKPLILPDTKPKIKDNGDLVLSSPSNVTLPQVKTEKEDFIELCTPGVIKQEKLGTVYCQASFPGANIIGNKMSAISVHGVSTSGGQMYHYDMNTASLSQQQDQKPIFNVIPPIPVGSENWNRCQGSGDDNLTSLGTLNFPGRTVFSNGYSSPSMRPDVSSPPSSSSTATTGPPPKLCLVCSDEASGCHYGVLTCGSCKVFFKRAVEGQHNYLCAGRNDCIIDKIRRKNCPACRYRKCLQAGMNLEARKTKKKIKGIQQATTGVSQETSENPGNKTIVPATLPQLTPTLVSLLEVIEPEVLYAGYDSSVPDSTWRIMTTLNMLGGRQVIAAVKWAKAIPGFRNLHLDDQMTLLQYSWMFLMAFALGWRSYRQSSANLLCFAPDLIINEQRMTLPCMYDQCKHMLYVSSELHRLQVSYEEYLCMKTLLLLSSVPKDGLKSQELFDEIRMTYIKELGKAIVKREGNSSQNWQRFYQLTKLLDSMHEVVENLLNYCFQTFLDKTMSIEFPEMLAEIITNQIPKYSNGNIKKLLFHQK
Assay: Radioactive ligand binding test, GR cytosol, [3H]-Dex
Procedure: Radioactive Ligand Binding Test Using Cytosols of Human Glucocorticoids Receptor, Progesterone Receptor and Mineralocorticoid Receptor
Opthalmol. Vis. […] In brief, cytosol preparations of human recombinant glucocorticoids receptor (GR) and human recombinant progesterone receptor-B (PRB) were purchased from Invitrogen (Carlsbad, Calif.), and a cytosol preparation of human recombinant mineralocorticoid receptor (MR) was prepared by our company (Yokohama, JP). MR cDNA was cloned into a baculovirus expression vector and expressed in insect cell Sf9. […] [^3H]-Dexamethasone (Dex, specific activity 91.0 Ci/mmol) was purchased from GE Healthcare (Buckinghamshire, UK), and [^3H]-progesterone (Prog, specific activity 103 Ci/mmol) and [3H]-aldosterone (Ald, specific activity 87.9 Ci/mmol) were each purchased from PerkinElmer (Boston, Mass.). Polypropylene round-bottomed 96 well plate was obtained from ABgene (Epsom, UK). Dimethyl Sulfoxide (DMSO) and hydrochloric acid were obtained from Kanto Chemical (TOKYO, JP). Trizma Base (Tris), Bovine Serum Albumin (BSA) and Sodium tungstate dihydrate were obtained from Sigma Chemicals (St. Louis, Mo.). Dithiothreitol (DTT) and Dextran 70 were obtained from GE Healthcare (Buckinghamshire, UK). Glycerol was obtained from Junsei Chemical (TOKYO, JP). Norit® “SX-II” was obtained from Wako Pure Chemical Industries, Ltd. (Osaka, JP). MeltiLex™, A, Printed Filtermat A and Sample Bag were obtained from PerkinElmer (Boston, Mass.).
As a buffer for GR binding assay, 25 mM Tris-HCl (4° C., pH 7.4)/1 mM EDTA·2Na/1 mM DTT/0.1% BSA was prepared and used. As buffers for PRB and MR binding assay, 10 mM Tris-HCl (4° C., pH 7.4)/1 mM DTT/0.1% BSA/10% glycerol and 20 mM Tris-HCl (4° C., pH 7.4)/1 mM EDTA·2Na/10% glycerol/20 mM sodium tungstate were respectively prepared and used.
Compound storage solutions (5-20 mM) were prepared using DMSO. The storage solutions were diluted with DMSO to 0.1 mM (for GR) and 0.3 mM (for PRB and MR), and further diluted 20-fold with distilled water to give solutions. Then, the preparations were diluted to each concentration with 5% DMSO solution. 1% DMSO was present at the time of the binding assay.
GR, PRB and MR binding reactions were performed in 96 well plate (ABgene). In the case of GR binding assay, [^3H]-Dex (about 5 nM), GR cytosol (concentration of function receptor: about 4 pmol/mL), a test compound and a binding buffer were mixed in a total volume of 50 μL, and the mixture was stood at 4° C. for 30 min or longer. A specific binding was defined to be the difference in the [^3H]-Dex binding between the presence and the absence of 1 μM unlabeled Dex.
After the reaction, 50 μL of DCC was added to each well and blended. Thereafter, the mixture was stood at 4° C. for 10 min. The plate was applied to high-speed cooling centrifuge under the conditions of 4° C., 2000 rpm, 5 min to perform B/F separation. A given amount of the supernatant was recovered, which was spotted on Filtermat A of 96 well format (PerkinElmer) and rapidly dried at a high temperature.
Measurement of Inhibition Constant (Ki)
Ki of the test compound was determined by the following Cheng-Prusoff equation: Ki=IC50/(1+[L*]/Kd) • wherein L* is a concentration of radioactive ligand and Kd is a dissociation constant for radioactive ligand determined by saturation analysis.

[1] = [3H]-Dex about 5 nM, GR cytosol, 4° C., Cheng-Prusoff, Kd about 3.1 nM, read-out: GR (Ki: nM)

SMILES	Ki [1]	Ki
Cc1noc(C)c1-c1cc2c(c3c1CCC3)NC(C)(C)C(=O)C2(C)C [Example 2, 6-(3,5-dimethylisoxazol-4-yl)-2,2,4,4-tetramethyl-2,3,4,7,8,9-hexahydro-1H-cyclopenta[h]quinolin-3-one]	15 nM	
Cc1nnn(C)c1-c1cc2c(c3c1CCC3)NC(C)(C)C(=O)C2(C)C [Example 4, 6-(3,5-dimethyl-3H-[1,2,3]triazol-4-yl)-2,2,4,4-tetramethyl-2,3,4,7,8,9-hexahydro-1H-cyclopenta[h]quinolin-3-one]	53 nM	
CC1(C)Nc2c(cc(-c3ccnc4cc[nH]c34)c3c2CCC3)C(C)(C)C1=O [Example 13, 2,2,4,4-tetramethyl-6-(1H-pyrrolo[3,2-b]pyridin-7-yl)-2,3,4,7,8,9-hexahydro-1H-cyclopenta[h]quinolin-3-one]	54 nM	
CC1(C)Nc2c(cc(-c3cccc4nccn34)c3c2CCC3)C(C)(C)C1=O [Example 14, 6-(imidazo[1,2-a]pyridin-5-yl)-2,2,4,4-tetramethyl-2,3,4,7,8,9-hexahydro-1H-cyclopenta[h]quinolin-3-one]	11 nM	
CC1(C)Nc2c(cc(-c3cccc4nncn34)c3c2CCC3)C(C)(C)C1=O [Example 17, 2,2,4,4-tetramethyl-6-([1,2,4]triazolo[4,3-a]pyridin-5-yl)-2,3,4,7,8,9-hexahydro-1H-cyclopenta[h]quinolin-3-one]	53 nM	
CC1(C)Nc2c(cc(-c3cccc4ncccc34)c3c2CCC3)C(C)(C)C1=O [Example 20, 2,2,4,4-tetramethyl-6-(quinolin-5-yl)-2,3,4,7,8,9-hexahydro-1H-cyclopenta[h]quinolin-3-one]	70 nM	
CC1(C)Nc2c(cc(-c3ccnc4ncccc34)c3c2CCC3)C(C)(C)C1=O [Example 21, 2,2,4,4-tetramethyl-6-([1,8]naphthyridin-4-yl)-2,3,4,7,8,9-hexahydro-1H-cyclopenta[h]quinolin-3-one]	35 nM	
C=C1C(C)(C)Nc2c(cc(-c3c(C)ncn3C)c3c2CCC3)C1(C)C [Example 29, 6-(3,5-dimethyl-3H-imidazol-4-yl)-2,2,4,4-tetramethyl-3-methylene-2,3,4,7,8,9-hexahydro-1H-cyclopenta[h]quinoline]	58 nM	
C=CCC1(C)C(=O)C(C)(C)Nc2c1cc(-c1ccc(O)cc1C)c1c2CCC1 (stereo not drawn) [Example 50, 4-allyl-6-(4-hydroxy-2-methylphenyl)-2,2,4-trimethyl-2,3,4,7,8,9-hexahydro-1H-cyclopenta[h]quinolin-3-one]	97 nM	
C=CCC1(C)C(=O)C(C)(C)Nc2c1cc(-c1c(C)noc1C)c1c2CCC1 (stereo not drawn) [Example 51, 4-allyl-6-(3,5-dimethylisoxazol-4-yl)-2,2,4-trimethyl-2,3,4,7,8,9-hexahydro-1H-cyclopenta[h]quinolin-3-one]	17 nM	
C=CCC1(C)C(=O)C(C)(C)Nc2c1cc(-c1cccc3nccn13)c1c2CCC1 (stereo not drawn) [Example 57, 4-allyl-6-(imidazo[1,2-a]pyridin-5-yl)-2,2,4-trimethyl-2,3,4,7,8,9-hexahydro-1H-cyclopenta[h]quinolin-3-one]	14 nM	
CCC1(C)C(=O)C(C)(C)Nc2c1cc(-c1cccc3nccn13)c1c2CCC1 (stereo not drawn) [Example 58, 4-ethyl-6-(imidazo[1,2-s]pyridin-5-yl)-2,2,4-trimethyl-2,3,4,7,8,9-hexahydro-1H-cyclopenta[h]quinolin-3-one]	12 nM	
CC#CCC1(C)C(=O)C(C)(C)Nc2c1cc(-c1cccc3nccn13)c1c2CCC1 (stereo not drawn) [Example 63, 4-(2-butynyl)-6-(imidazo[1,2-a]pyridin-5-yl)-2,2,4-trimethyl-2,3,4,7,8,9-hexahydro-1H-cyclopenta[h]quinolin-3-one]	27 nM	
Cc1noc(C)c1-c1cc2c(c3c1OCO3)NC(C)(C)C(=O)C2(C)C [Example 69, 4-(3,5-dimethylisoxazol-4-yl)-6,6,8,8-tetramethyl-6,7,8,9-tetrahydro-[1,3]dioxolo[4,5-h]quinolin-7-one]	55 nM	
CC1(C)Nc2c(cc(-c3cccc4nccn34)c3c2OCO3)C(C)(C)C1=O [Example 71, 4-(imidazo[1,2-a]pyridin-5-yl)-6,6,8,8-tetramethyl-6,7,8,9-tetrahydro-[1,3]dioxolo[4,5-h]quinolin-7-one]	59 nM	
CC1(C)Nc2c(cc(-c3cccc4ncccc34)c3c2OCO3)C(C)(C)C1=O [Example 72, 6,6,8,8-tetramethyl-4-(quinolin-5-yl)-6,7,8,9-tetrahydro-[1,3]dioxolo[4,5-h]quinolin-7-one]	96 nM	
C=CCC1(C)C(=O)C(C)(C)Nc2c1cc(-c1cccc3cc[nH]c13)c1c2OCO1 (stereo not drawn) [Example 78, 6-allyl-4-(1H-indol-7-yl)-6,8,8-trimethyl-6,7,8,9-tetrahydro-[1,3]dioxolo[4,5-h]quinolin-7-one]		80 nM
CC1(C)Nc2c(cc(-c3cccc4nccn34)c3c2OC(F)(F)O3)C(C)(C)C1=O [Example 82, 2,2-difluoro-4-(imidazo[1,2-a]pyridin-5-yl)-6,6,8,8-tetramethyl-6,7,8,9-tetrahydro-[1,3]dioxolo[4,5-h]quinolin-7-one]	47 nM	
Cc1noc(C)c1-c1cc2c(c3c1OCC3)NC(C)(C)C(=O)C2(C)C [Example 84, 6-(3,5-dimethylisoxazol-4-yl)-2,2,4,4-tetramethyl-1,2,3,4,8,9-hexahydro-furo[2,3-h]quinolin-3-one]	27 nM	
CC1(C)Nc2c(cc(-c3cccc4nccn34)c3c2CCO3)C(C)(C)C1=O [Example 88, 6-(imidazo[1,2-a]pyridin-5-yl)-2,2,4,4-tetramethyl-1,2,3,4,8,9-hexahydro-furo[2,3-h]quinolin-3-one]	19 nM	
CC1(C)Nc2c(cc(-c3ccnc4ncccc34)c3c2CCO3)C(C)(C)C1=O [Example 92, 2,2,4,4-tetramethyl-6-([1,8]naphthyridin-4-yl)-1,2,3,4,8,9-hexahydro-furo[2,3-h]quinolin-3-one]	64 nM	
Cc1onc(CO)c1-c1cc2c(c3ccoc13)NC(C)(C)C(=O)C2(C)C [Example 94, 6-(3-hydroxymethyl-5-methylisoxazol-4-yl)-2,2,4,4-tetramethyl-1,2,3,4-tetrahydro-furo[2,3-h]quinolin-3-one]	11 nM	
CC1(C)Nc2c(cc(-c3cccc4nccn34)c3occc23)C(C)(C)C1=O [Example 98, 6-(imidazo[1,2-a]pyridin-5-yl)-2,2,4,4-tetramethyl-1,2,3,4-tetrahydro-furo[2,3-h]quinolin-3-one]	15 nM	
CC1(C)Nc2c(cc(-c3cncc4nccn34)c3occc23)C(C)(C)C1=O [Example 100, 6-(imidazo[1,2-a]pyrazin-5-yl)-2,2,4,4-tetramethyl-1,2,3,4-tetrahydro-furo[2,3-h]quinolin-3-one]	85 nM	
